From patent US7329651B2 (priority 2001, dated 2008)
Read-outs that look alike come from different tables or passages of the source.

Columns and labels:
CB1 cannabinoid receptor = biological target: T1, CB1 cannabinoid receptor (Rattus norvegicus, UniProt P20272); assay: CB1 receptor binding, [3H] CP-55,940 displacement, rat forebrain membranes
T1 construct: membranes were prepared from rat forebrain membranes; from tissue; host or cells: rat forebrain
Procedure: (§1) The prepared cannabinoid compounds were tested for CB2 receptor binding affinity and for CB1 receptor affinity (to determine selectivity for the CB2 receptor). As used herein, “binding affinity” is represented by the IC50 value which is the concentration of an analog required to occupy the 50% of the total number (Bmax) of the receptors. The lower the IC50 value, the higher the binding affinity. […] The binding affinities (Ki) are expressed in nanomoles (nM).
For the CB1 receptor binding studies, membranes were prepared from rat forebrain membranes according to the procedure of P. R. Dodd et al; A Rapid Method for Preparing Synaptosomes: Comparison with Alternative Procedures, Brain Res., 107-118 (1981). The binding of the novel analogues to the CB1 cannabinoid receptor was assessed as described in W. A. Devane et al; Determination and Characterization of a Cannabinoid Receptor in a Rat Brain, Mol. Pharmacol., 34, 605-613 (1988) and A. Charalambous et al; “5′-azido ^8−THC: A Novel Photoaffinity Label for the Cannabinoid Receptor”, J. Med. Chem., 35, 3076-3079 (1992) with the following changes. The above articles are incorporated by reference herein.
Membranes, previously frozen at −80° C., were thawed on ice. To the stirred suspension was added three volumes of TME (25 mM Tris-HCl buffer, 5 mM MgCl2 and 1 mM EDTA) at a pH 7.4. The suspension was incubated at 40° C. for 30 min. At the end of the incubation, the membranes were pelleted and washed three times with TME.
(§2) The treated membranes were subsequently used in the binding assay described below. Approximately 30 μg of membranes were incubated in silanized 96-well microtiter plate with TME containing 0.1% essentially fatty acid-free bovine serum albumin (BSA), 0.8 nM [^3H] CP-55,940, and various concentrations of test materials at 30° C. for 1 hour. The samples were immediately filtered using a Packard Filtermate 196 and Whatman GF/C filterplates and washed with wash buffer (TME) containing 0.5% BSA. Radioactivity was detected using MicroScint 20 scintillation cocktail added directly to the dried filterplates, and the filterplates were counted using a Packard Instruments Top-Count. Nonspecific binding was assessed using 100 nM CP-55,940. Data collected from three independent experiments performed with duplicate determinations was normalized between 100% and 0% specific binding for [^3H] CP-55,940, determined using buffer and 100 nM CP-55,940. The normalized data was analyzed using a 4-parameter nonlinear logistic equation to yield IC50 values. Data from at least two independent experiments performed in duplicate was used to calculate IC50 values which were converted to Ki values using the using the assumptions of Cheng et al; “Relationship Between the Inhibition Constant (Ki) and the concentration of Inhibitor which causes 50% Inhibition (IC50) of an Enzymatic Reaction”, Biochem. Pharmacol., 22, 3099-3102, (1973), which is incorporated by reference herein.

CB2 receptor = biological target: T2, CB2 receptor (Mus musculus, UniProt P47936); assay: biochemical; format: binding; conditions: for Selectivity for CB2: ratio of CB1 Ki to CB2 Ki
T2 construct: membranes were prepared from frozen mouse spleen; from tissue; host or cells: mouse spleen
T2 sequence (P47936 whole entry): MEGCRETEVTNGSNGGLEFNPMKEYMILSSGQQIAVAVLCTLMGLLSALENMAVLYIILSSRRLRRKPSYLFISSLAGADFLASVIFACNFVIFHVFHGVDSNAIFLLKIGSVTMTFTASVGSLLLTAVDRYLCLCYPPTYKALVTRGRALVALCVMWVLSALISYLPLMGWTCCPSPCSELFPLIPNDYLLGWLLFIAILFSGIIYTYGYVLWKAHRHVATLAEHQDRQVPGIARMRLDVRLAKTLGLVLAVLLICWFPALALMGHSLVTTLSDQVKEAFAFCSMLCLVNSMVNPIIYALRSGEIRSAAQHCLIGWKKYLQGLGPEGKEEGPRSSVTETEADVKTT
Procedure: as §1, §2
For the CB2 receptor binding studies, membranes were prepared from frozen mouse spleen essentially according to the procedure of P. R. Dodd et al; “A Rapid Method for Preparing Synaptosomes: Comparison with Alternative Procedures”, Brain Res., 226, 107-118 (1981) which is incorporated by reference herein. Silanized centrifuge tubes were used throughout to minimize receptor loss due to adsorption. The CB2 binding assay was conducted in the same manner as the CB1 binding assay. The binding affinities (Ki) were also expressed in nanomoles (nM).

CB2 = CB2 (Homo sapiens, UniProt P34972); assay: Intracellular cyclic AMP levels, comparative protein binding assay (adenylate cyclase inhibition); format: cell-based; conditions: intracellular cAMP
Sequence of CB2 (P34972 whole entry, species assumed, the tested form may be a part): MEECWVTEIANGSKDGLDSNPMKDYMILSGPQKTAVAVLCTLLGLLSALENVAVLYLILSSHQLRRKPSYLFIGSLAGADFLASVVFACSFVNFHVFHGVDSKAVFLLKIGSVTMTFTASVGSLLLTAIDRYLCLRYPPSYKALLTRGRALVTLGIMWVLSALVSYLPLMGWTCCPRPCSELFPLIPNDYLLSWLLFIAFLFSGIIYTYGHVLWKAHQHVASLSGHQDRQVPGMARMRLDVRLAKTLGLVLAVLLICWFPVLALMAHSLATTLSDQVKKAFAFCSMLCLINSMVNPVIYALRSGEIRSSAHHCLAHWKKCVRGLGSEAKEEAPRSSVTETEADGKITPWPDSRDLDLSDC
Procedure: Intracellular cyclic AMP (cAMP) levels are measured with a comparative protein binding assay (materials available from Diagnostic Products, Inc. of Carlsbad, Calif.) generally according to the method described in Tao, Q. and M. E. Abood; “Mutation of a highly conserved aspartate residue in the second transmembrane domain of the cannabinoid receptors, CB1 and CB2, disrupts G-protein coupling”, J Pharmacol Exp Ther, 1998, 285(2): pp. 651-658, which is incorporated by reference herein. […] The IC50 value for Compound 2 was 8 nM.

[1] = rat forebrain membranes, 0.8 nM [3H] CP-55,940, read-out: Ki(nM) CB1
[2] = mouse spleen membranes, [3H] CP-55,940, read-out: Ki(nM) CB2

T1 sequence (P20272 whole entry): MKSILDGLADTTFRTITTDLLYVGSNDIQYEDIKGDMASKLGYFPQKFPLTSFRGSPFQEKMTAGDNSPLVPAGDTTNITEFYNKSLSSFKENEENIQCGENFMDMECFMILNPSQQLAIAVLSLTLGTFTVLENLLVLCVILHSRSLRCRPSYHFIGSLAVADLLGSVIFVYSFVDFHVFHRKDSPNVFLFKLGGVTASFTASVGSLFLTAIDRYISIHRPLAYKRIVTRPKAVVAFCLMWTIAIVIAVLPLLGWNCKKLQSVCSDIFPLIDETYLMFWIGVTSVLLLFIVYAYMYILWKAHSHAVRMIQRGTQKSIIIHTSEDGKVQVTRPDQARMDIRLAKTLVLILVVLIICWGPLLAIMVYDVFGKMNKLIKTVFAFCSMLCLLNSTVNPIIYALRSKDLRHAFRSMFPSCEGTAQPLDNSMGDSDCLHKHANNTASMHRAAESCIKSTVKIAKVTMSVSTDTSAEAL

Molecule | Ki (CB1 cannabinoid receptor; [1]) [nM] | Ki (CB2 receptor; [2]) [nM] | Selectivity for CB2 (CB2 receptor) | melting point [°C] | further results
CCOC(=O)C1=NN(c2ccc(Cl)cc2)C(C(=O)OCC)=NN1c1ccc(Cl)cc1 [compound 16, 1,4-Di-(4-chlorophenyl)-1,4-dihydro-1,2,4,5-tetrazine-3,6-dicarboxylic acid diethyl ester] | 208 | 48 | 4.3 |  | 
O=C(C1=NN(c2ccccc2)C(C(=O)N2CCCCC2)=NN1c1ccccc1)N1CCCCC1 [compound 9] | 9990 | 221 | 42 |  | 
CC(=O)C1=NN(c2ccccc2)C(C(C)=O)=NN1c1ccccc1 [compound 4, 1,4-Diphenyl-1,4-dihydro-3,6-diacetyl-1,2,4,5-tetrazine] | 10000 |  | 1 |  | Ki (CB2 receptor): 10000 nM
CCOC(=O)C1=NN(c2cccc3ccccc23)C(C(=O)OCC)=NN1c1cccc2ccccc12 [compound 20, 1,4-Di-(α-naphthalene)-1,4-dihydro-1,2,4,5-tetrazine-3,6-dicarboxylic acid diethyl ester] | 1e+06 | 1910 | 524 | 129 to 130 | 
CNC(=O)C1=NN(c2ccccc2)C(C(=O)NC)=NN1c1ccccc1 [compound 6] | 66000 |  | 1 |  | 
CCOC(=O)C1=NN(c2ccccc2)C(C(=O)N2CCCCC2)=NN1c1ccccc1 [compound 13, 1,4-Diphenyl-1,4-dihydro-1,2,4,5-tetrazine-3-carboxylic N-isopinocampheyl amide-6-carboxylic ethyl ester] | 5040 | 255 | 20 |  | 
CCOC(=O)C1=NN(C(=O)c2ccccc2)C(C(=O)OCC)=NN1C(=O)c1ccccc1 [compound 21, 1,4-Dibenzoyl-1,4-dihydro-1,2,4,5-tetrazine-3,6-dicarboxylic acid diethyl ester] | 100000 |  | 1 | 133.5 to 134 | 
CCOC(=O)C1=NN(c2ccccc2)C(C(=O)OCC)=NN1c1ccccc1 [compound 2] | 1670 | 19 | 88 |  | effect on formation of cyclic AMP (CB2; adenylate cyclase): reduce formation of cyclic AMP by inhibiting adenylate cyclase; IC50 (CB2; read-out: IC50 value, reduction of cyclic AMP formation): 0.008 µM
CCOC(=O)C1=NN(c2ccc(Cl)cc2Cl)C(C(=O)OCC)=NN1c1ccc(Cl)cc1Cl [compound 19] | 10000 | 10000 | 1 |  | 
CCOC(=O)C1=NN(c2ccc(Cl)cc2)C(C(=O)OCC)=NN1c1ccccc1 [compound 22, 1-(4-chlorophenyl)-4-phenyl-1,4-dihydro-1,2,4,5-tetrazine-3,6-dicarboxylic acid diethyl ester] | 1500 | 43 | 34 |  | 
CC1C(NC(=O)C2=NN(c3ccccc3)C(C(=O)NC3CC4CC(C3C)C4(C)C)=NN2c2ccccc2)CC2CC1C2(C)C (stereo not shown) [compound 11] |  |  | 1 |  | Ki (CB1 cannabinoid receptor): 100000 nM
CCOC(=O)C1=NN(c2ccc(OC)cc2)C(C(=O)OCC)=NN1c1ccc(OC)cc1 [compound 18] | 4590 | 72 | 64 |  | 
CCOC(=O)C1=NN(c2ccc([N+](=O)[O-])cc2)C(C(=O)OCC)=NN1c1ccc([N+](=O)[O-])cc1 [compound 15] |  |  |  |  | Ki (CB1 cannabinoid receptor): 100000 nM
NC(=O)C1=NN(c2ccccc2)C(C(N)=O)=NN1c1ccccc1 [compound 5] | 10000 | 10000 | 1 |  | 
CCCOC(=O)C1=NN(c2ccccc2)C(C(=O)OCCC)=NN1c1ccccc1 [compound 3, Dipropyl-1,4-diphenyl-1,4-dihydro-1,2,4,5-tetrazine-3,6-dicarboxylate] | 618 | 23.3 | 27 | 82.5 to 83 | 
CCOC(=O)C1=NN(c2ccccc2)C(C(=O)NC2CC3CC(C2C)C3(C)C)=NN1c1ccccc1 (stereo not shown) [compound 14, 1,4-Diphenyl-1,4-dihydro-1,2,4,5-tetrazine-3-carboxylic N-piperidinyl amide-6-carboxylic acid ethyl ester] |  | 805 | 2.6 |  | Ki (CB1 cannabinoid receptor): 2050 nM
CCOC(=O)C1=NN(c2ccc(Br)cc2)C(C(=O)OCC)=NN1c1ccc(Br)cc1 [compound 17] | 350 | 200 |  |  | 
CCOC(=O)c1nnc(C(=O)OCC)c2c1[nH]c1ccccc12 |  |  |  | 151 to 152 | 
CCOC(=O)C1=NN(c2ccccc2)C(C(C)=O)=NN1c1ccccc1 [compound 12, 1,4-Diphenyl-1,4-dihydro-1,2,4,5-tetrazine-3-aceto-6-carboxylic acid ethyl ester] | 7700 | 327 | 24 |  | 
CCNC(=O)C1=NN(c2ccccc2)C(C(=O)NCC)=NN1c1ccccc1 [compound 7] | 100000 |  | 1 |  | 
CN(C)C(=O)C1=NN(c2ccccc2)C(C(N)=O)=NN1c1ccccc1 [compound 6, N,N-Dimethyl-1,4-diphenyl-1,4-dihydro-1,2,4,5-tetrazine-3,6-dicarboxylic di-amide] |  |  |  | 243 to 243.5 | 
COC(=O)C1=NN(c2ccccc2)C(C(=O)OC)=NN1c1ccccc1 [compound 1, Dimethyl 1,4-diphenyl-1,4-dihydro-1,2,4,5-tetrazine-3,6-dicarboxylate] | 31000 | 381 | 81 | 171 to 172 | 
N,N-Dibutyl-1,4-diphenyl-1,4-dihydro-1,2,4,5-tetrazine-3,6-dicarboxylic di-amide [compound 8] | 16000 | 692 | 23 |  | 
CCOC(=O)C1=NN(C(=O)c2ccccc2I)C(C(=O)OCC)=NN1C(=O)c1ccccc1I |  |  |  | 186 to 187 | 
CCOC(=O)C1=NN(c2cccc3ccccc23)C(C(=O)OCC)=NN1c1ccccc1 [compound 24, 1-Phenyl-4-α-naphthalenyl-1,4-dihydro-1,2,4,5-tetrazine-3,6-dicarboxylic acid diethyl ester] | 7360 | 182 | 40 |  | 
CC(CO)NC(=O)C1=NN(c2ccccc2)C(C(=O)NC(C)CO)=NN1c1ccccc1 (stereo not shown) [compound 10] | 100000 |  | 1 | 262 to 263 | 
CCN(CC)C(=O)C1=NN(c2ccccc2)C(C(N)=O)=NN1c1ccccc1 [compound 7, N,N-Diethyl-1,4-diphenyl-1,4-dihydro-1,2,4,5-tetrazine-3,6-dicarboxylic di-amide] |  |  |  | 239 to 240 | 
CCOC(=O)C1=NN(c2ccc(Br)cc2)C(C(=O)OCC)=NN1c1ccc(Cl)cc1 [compound 23] | 542 | 30 | 18 | 130 to 131 | 
